Assay results published in patent US20230192657A1, “1,2,4-TRIAZOLINONE CB1 INHIBITORS” (Goldfinch Bio, Inc., priority 2020, published 2023).

Biological target: CB1 receptor (Homo sapiens, UniProt P21554)
Test: CB1 cAMP Antagonist Assay (LANCE Ultra cAMP kit)
Type: cell-based
Conditions: Flp-In CHO cells stably expressing the CB1 receptor; forskolin and CP55940 agonist at EC90; cAMP FRET readout
Excerpt: CB1 cAMP Antagonist Assay
LANCE Ultra cAMP kit (Perkin Elmer) was used to quantitate the amount of 3′,5′-cyclic adenosine monophosphate (cAMP) produced in Flp-In CHO (Invitrogen) cells stably expressing the CB1 receptor.
Forskolin was initially titrated to determine the response of the cells. The EC90 of forskolin was used for compound testing. CP55940 was titrated and used with EC90 of forskolin to determine the level of agonist stimulation. EC90 of the agonist was used for subsequent compound testing.
Forskolin (Sigma), CP55940 (Cayman Chemicals), and AM251 (MCE) were diluted in 100% DMSO, starting at 100 mM, 1 mM, and 1 mM respectively, in 3-fold serial dilutions. Test compounds were diluted in 100% DMSO starting from 10 mM, 3-fold dilutions. The cAMP assay buffer contains 1x Hank’s Buffered Saline Solution with Ca^2+ and Mg^2+ (Invitrogen), 5.3 mM HEPES (Invitrogen), 0.05% BSA, 0.5 mM IBMX (Sigma).
For all assays, cells were harvested, counted, and diluted in cAMP assay buffer to 1× 10^5 cells/mL. Only cells with viability >85% were used for the assay. Cells were seeded at 1000 cells/well in 384-well plates and 10 nL/well AM251 or test compound was added and incubated at 37° C. for 10 min. […] To detect the amount of cAMP produced, 5 µL of a 100x diluted stock of Eu-cAMP tracer and 5 µL of 200x diluted stock of Ulight-anti-cAMP were added to each well, and the plate incubated at 25° C. for 15 min. The FRET signal was read using an EnVision microplate reader (λex=320 nm, λem=615 nm and 665 nm).
The IC50 is determined by fitting the percentage of inhibition as a function of compound concentrations with the Hill equation, using a 4-parameter fit in either XLfit or GraphPad Prism.

CB1 receptor, sequence (P21554 whole entry): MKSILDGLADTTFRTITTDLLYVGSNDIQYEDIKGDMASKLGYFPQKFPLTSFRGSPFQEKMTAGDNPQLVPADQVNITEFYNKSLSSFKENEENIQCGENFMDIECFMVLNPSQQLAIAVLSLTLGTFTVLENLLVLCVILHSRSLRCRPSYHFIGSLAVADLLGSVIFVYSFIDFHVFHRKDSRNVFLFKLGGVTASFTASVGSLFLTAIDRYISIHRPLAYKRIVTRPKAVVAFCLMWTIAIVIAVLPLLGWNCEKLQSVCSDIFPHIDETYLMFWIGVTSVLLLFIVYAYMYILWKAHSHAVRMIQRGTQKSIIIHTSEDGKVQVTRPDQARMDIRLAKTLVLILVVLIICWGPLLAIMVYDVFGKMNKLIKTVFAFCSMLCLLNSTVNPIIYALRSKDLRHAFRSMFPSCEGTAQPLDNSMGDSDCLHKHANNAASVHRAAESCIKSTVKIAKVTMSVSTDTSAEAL

| SMILES | IC50 [nM] |
| --- | --- |
| C[C@@H](c1ccc(Cl)cc1)n1nc(N2C[C@H](c3ccccc3)C(c3ccc(Cl)cc3)=N2)n(CC(N)=O)c1=O [Compound 153] | < 100 |
| C[C@@H](C(N)=O)n1c(N2C[C@@H](c3ccccc3)C(c3ccc(Cl)cc3)=N2)nn(Cc2ccc(CN3CCOCC3)cc2)c1=O [Compound 159] | 1000 to 5000 |
| C[C@H](C(N)=O)n1c(N2C[C@@H](c3ccccc3)C(c3ccc(Cl)cc3)=N2)n[nH]c1=O [Compound 199] | > 5000 |
| Cn1nc(N2C[C@@]3(CCc4ccccc43)C(c3ccc(Cl)cc3)=N2)n(C)c1=O [Compound 141] | 1000 to 5000 |
| Cc1ccc(Cn2nc(N3CC(c4ccccc4)C(c4ccc(Cl)cc4)=N3)n(C)c2=O)cn1 (stereo not shown) [Compound 183] | 100 to 1000 |
| CCOC(=O)Cn1c(N2C[C@H](c3ccccc3)C(c3ccc(Cl)cc3)=N2)nn(-c2ccc(Cl)cc2)c1=O [Compound 104, ethyl 2-[1-(4-chlorophenyl)-3-[(4S)-3-(4-chlorophenyl)-4-phenyl-4,5-dihydro-1H-pyrazol-1-yl]-5-oxo-4,5-dihydro-1H-1 ,2,4-triazol-4-yl]acetate] | < 100 |
| Cc1ccc(Cn2nc(N3C[C@@H](c4ccccc4)C(c4ccc(Cl)cc4)=N3)n(C)c2=O)cc1 [Compound 161] | 1000 to 5000 |
| NC(=O)Cn1c(N2C[C@@]3(CCc4ccccc43)C(c3ccc(Cl)cc3)=N2)nn(CC2CCCCC2)c1=O [Compound 147, 2-[3-[(1S)-3-(4-chlorophenyl)-1,2,3,5-tetrahydrospiro[indene-1,4-pyrazol]-1-y1]-1-(cyclohexylmethyl)-5-oxo-4,5-dihydro-1H-1,2,4-triazol-4-yl]acetamide] | 1000 to 5000 |
| COc1ccc(Cn2nc(N3C[C@H](c4ccccc4)C(c4ccc(Cl)cc4)=N3)n(C)c2=O)cc1 [Compound 143] | < 100 |
| Cn1c(N2C[C@@H](c3ccccc3)C(c3ccc(Cl)cc3)=N2)nn(Cc2ccc(CN3CCOCC3)cc2)c1=O [Compound 134] | 1000 to 5000 |
| Cn1c(N2CC3(CCc4ccccc43)C(c3ccc(Cl)cc3)=N2)nn(CC2CCCCC2)c1=O (stereo in doubt) [Compound 140, 3-[(1R)-3-(4-chlorophenyl)-1,2,3,5-tetrahydrospiro[indene-1,4-pyrazol]-1-yl]-1-(cyclohexylmethyl)-4-methyl-4,5-dihydro-1H-1,2,4-triazol-5-one] | 1000 to 5000 |
| NC(=O)Cn1c(N2C[C@H](c3ccccc3)C(c3ccc(Cl)cc3)=N2)nn(Cc2ccc(CN3CCOCC3)cc2)c1=O [Compound 145, 2-[3-[(4S)-3-(4-chlorophenyl)-4-phenyl-4,5-dihydro-1H-pyrazol-1-yl]-1-([4-[(morpholin-4-yl)methyl]phenyl]methyl)-5-oxo-4,5-dihydro-1H-1,2,4-triazol-4-yl]acetamide] | 100 to 1000 |
| NC(=O)Cn1c(N2C[C@H](c3ccccc3)C(c3ccc(Cl)cc3)=N2)nn(Cc2ccc(Cl)cc2)c1=O [Compound 107, 2-[3-[(4S)-3-(4-chlorophenyl)-4-phenyl-4,5-dihydro-1H-pyrazol-1-yl]-1-[(4-chlorophenyl)methyl]-5-oxo-4,5-dihydro-1H-1,2,4-triazol-4-yl]acetamide] | < 100 |
| C[C@H](C(N)=O)n1c(N2C[C@@H](c3ccccc3)C(c3ccc(Cl)cc3)=N2)nn(Cc2ccc(Cl)cc2)c1=O [Compound 180] | > 5000 |
| Cn1c(N2C[C@]3(CCc4ccccc43)C(c3ccc(Cl)cc3)=N2)nn(-c2ccc(Cl)cc2)c1=O [Compound 109] | > 5000 |
| C[C@@H](C(N)=O)n1c(N2C[C@@H](c3ccccc3)C(c3ccc(Cl)cc3)=N2)nn(Cc2ccc(Cl)cn2)c1=O [Compound 201] | 100 to 1000 |
| Cn1c(N2CC(c3ccccc3)C(c3ccc(Cl)cc3)=N2)nn(Cc2cccc(C(=O)O)c2)c1=O (stereo not shown) [Compound 186] | > 5000 |
| COC(=O)c1cccc(Cn2nc(N3CC(c4ccccc4)C(c4ccc(Cl)cc4)=N3)n(C)c2=O)c1 (stereo not shown) [Compound 189] | 100 to 1000 |
| Cn1c(N2C[C@@]3(CCc4ccccc43)C(c3ccc(Cl)cc3)=N2)nn(Cc2ccc(Cl)cc2)c1=O [Compound 113] | 1000 to 5000 |
| Cn1c(N2C[C@H](c3ccccc3)C(c3ccc(Cl)cc3)=N2)nn(-c2ccc(CN3CCOCC3)cc2)c1=O [Compound 144, 3-[(4S)(4-Chlorophenyl)-4-Phenyl-4,5-Dihydro-1H-Pyrazol-1-yl]-4-Methyl-1-[4-[(Morpholin-4-yl)Methyl] Phenyl]-4,5-Dihydro-1H-1,2,4-Triazol-5-One] | 100 to 1000 |

| SMILES | IC50 [nM] |
| --- | --- |
| CCOC(=O)Cn1c(N2C[C@@H](c3ccccc3)C(c3ccc(Cl)cc3)=N2)nn(-c2ccc(Cl)cc2)c1=O [Compound 105, ethyl 2-[1-(4-chlorophenyl)-3-[(4R)-3-(4-chlorophenyl)-4-phenyl-4,5-dihydro-1H-pyrazol-1-yl]-5-oxo-4,5-dihydro-1H-1,2,4-triazol-4-yl]acetate] | < 100 |
| Cn1c(N2CC(c3ccccc3)C(c3ccc(Cl)cc3)=N2)nn(Cc2ccc(C#N)cc2)c1=O (stereo not shown) [Compound 160] | < 100 |
| Cn1c(N2C[C@@H](c3ccccc3)C(c3ccc(Cl)cc3)=N2)nn(CCc2ccc(C(N)=O)cc2)c1=O [Compound 212] | > 5000 |
| Cc1cc(Cn2nc(N3CC(c4ccccc4)C(c4ccc(Cl)cc4)=N3)n(C)c2=O)ccc1Cl (stereo not shown) [Compound 178] | < 100 |
| NC(=O)Cn1c(N2C[C@@H](c3ccccc3)C(c3ccc(Cl)cc3)=N2)nn(-c2ccc(Cl)cc2)c1=O [Compound 108, 2-[1-(4-chlorophenyl)-3-[(4R)-3-(4-chlorophenyl)-4-phenyl-4,5-dihydro-1H-pyrazol-1-yl]-5-oxo-4,5-dihydro-1H-1 ,2,4-triazol-4-yl]acetamide] | < 100 |
| Cn1c(N2C[C@H](c3ccccc3)C(c3ccc(Cl)cc3)=N2)n[nH]c1=O [Compound 172, 5-[(4S)-3-(4-chlorophenyl)-4-phenyl-4,5-dihydropyrazol-1-yl]-4-methyl-2H-1,2,4-triazol-3-one] | 1000 to 5000 |
| CN1CCN(Cc2ccc(Cn3nc(N4C[C@@H](c5ccccc5)C(c5ccc(Cl)cc5)=N4)n(C)c3=O)cc2)CC1 [Compound 135] | > 5000 |
| Cn1c(N2C[C@@H](c3ccccc3)C(c3ccc(Cl)cc3)=N2)nn(-c2ccc(Cl)cc2)c1=O [Compound 100] | > 5000 |
| CN1CCN(Cc2ccc(Cn3nc(N4C[C@H](c5ccccc5)C(c5ccc(Cl)cc5)=N4)n(C)c3=O)cc2)CC1 [Compound 137] | 1000 to 5000 |
| COCCn1c(N2CC3(CCc4ccccc43)C(c3ccc(Cl)cc3)=N2)nn(Cc2ccc(Cl)cc2)c1=O (stereo in doubt) [Compound 123, 3-[(1S)-3-(4-chlorophenyl)-1,2,3,5-tetrahydrospiro[indene-1,4-pyrazol]-1-yl]-1-[(4-chlorophenyl)methyl]-4-(2-methoxyethyl)-4,5-dihydro-1H-1,2,4-triazol-5-one] | 100 to 1000 |
| O=c1[nH]nc(N2C[C@H](c3ccccc3)C(c3ccc(Cl)cc3)=N2)[nH]1 [Compound 211, 5-[(4S)-3-(4-chlorophenyl)-4-phenyl-4,5-dihydropyrazol-1-yl]-2,4-dihydro-1,2,4-triazol-3-one] | > 5000 |
| Cn1c(N2CC(c3ccccc3)C(c3ccc(Cl)cc3)=N2)nn(CCc2ccc(C(=O)O)cc2)c1=O (stereo not shown) [Compound 195] | > 5000 |
| C[C@H](C(N)=O)n1c(N2C[C@@H](c3ccccc3)C(c3ccc(Cl)cc3)=N2)nn(Cc2ccc(Cl)cn2)c1=O [Compound 213] | > 5000 |
| NC(=O)Cn1c(N2C[C@@]3(CCc4ccccc43)C(c3ccc(Cl)cc3)=N2)nn(Cc2ccc(Cl)cc2)c1=O [Compound 125, 2-[3-[(1S)-3-(4-chlorophenyl)-1,2,3,5-tetrahydrospiro[indene-1,4-pyrazol]-1-yl]-1-[(4-chlorophenyl)methyl]-5-oxo-4,5-dihydro-1H-1,2,4-triazol-4-yl]acetamide] | 1000 to 5000 |
| CC(C(N)=O)n1c(N2C[C@H](c3ccccc3)C(c3ccc(Cl)cc3)=N2)nn(Cc2ccc(CN3CCOCC3)cc2)c1=O (stereo partly shown) [Compound 167] | 100 to 1000 |
| O=C(O)CCn1c(N2C[C@@]3(CCc4ccccc43)C(c3ccc(Cl)cc3)=N2)nn(Cc2ccc(Cl)cc2)c1=O [Compound 131] | > 5000 |
| C[C@@H](C(N)=O)n1c(N2C[C@@H](c3ccccc3)C(c3ccc(Cl)cc3)=N2)nn(Cc2ccc(Cl)cc2)c1=O [Compound 179] | > 5000 |
| CC(C(N)=O)n1c(N2CC(c3ccccc3)C(c3ccc(Cl)cc3)=N2)nn(CC2CCCCC2)c1=O (stereo not shown) [Compound 158, 2-[3-[3-(4-chlorophenyl)-4-phenyl-4,5-dihydropyrazol-1-yl]-1-(cyclohexylmethyl)-5-oxo-1,2,4-triazol-4-yl]propanamide] | < 100 |
| COc1ccc(Cn2nc(N3CC(c4ccccc4)C(c4ccc(Cl)cc4)=N3)n([C@@H](C)C(N)=O)c2=O)cc1OC (stereo partly drawn) [Compound 194, (2S)-2-[3-[3-(4-chlorophenyl)-4-phenyl-4,5-dihydropyrazol-1-yl]-1-[(3,4-dimethoxyphenyl)methyl]-5-oxo-1,2,4-triazol-4-yl]propanamide] | 100 to 1000 |
| COCCn1c(N2C[C@]3(CCc4ccccc43)C(c3ccc(Cl)cc3)=N2)nn(-c2ccc(Cl)cc2)c1=O [Compound 110] | > 5000 |
